The assay has as its target 5-hydroxytryptamine receptor 2A (Homo sapiens, UniProt P28223). Briefly: Radioligand Binding Assay Protocol. How it is done: Competition binding experiments consisted of addition of 5 μL of serially diluted test compound, 50 μL of radioligand stock diluted in Assay Buffer (20 mM HEPES, pH 7.4, 10 mM MgCl2), and 145 μL of diluted membrane expressing the receptor of interest to 96-well microtiter plates, which were then incubated for one hour at room temperature. Assay incubations were terminated by rapid filtration through Perkin Elmer GF/C filtration plates under vacuum pressure using a 96-well Packard filtration apparatus, followed by washing the filter plates several times with ice cold Assay Buffer. Plates were then dried at 45° C. for a minimum of four hours. Finally, 25 μL of BetaScint scintillation cocktail was added to each well and the plates were counted in a Packard TopCount scintillation counter. In each competition study, test compounds were assayed at 10 concentrations with three replicates at each test concentration.

Sequence of 5-hydroxytryptamine receptor 2A (P28223 whole entry): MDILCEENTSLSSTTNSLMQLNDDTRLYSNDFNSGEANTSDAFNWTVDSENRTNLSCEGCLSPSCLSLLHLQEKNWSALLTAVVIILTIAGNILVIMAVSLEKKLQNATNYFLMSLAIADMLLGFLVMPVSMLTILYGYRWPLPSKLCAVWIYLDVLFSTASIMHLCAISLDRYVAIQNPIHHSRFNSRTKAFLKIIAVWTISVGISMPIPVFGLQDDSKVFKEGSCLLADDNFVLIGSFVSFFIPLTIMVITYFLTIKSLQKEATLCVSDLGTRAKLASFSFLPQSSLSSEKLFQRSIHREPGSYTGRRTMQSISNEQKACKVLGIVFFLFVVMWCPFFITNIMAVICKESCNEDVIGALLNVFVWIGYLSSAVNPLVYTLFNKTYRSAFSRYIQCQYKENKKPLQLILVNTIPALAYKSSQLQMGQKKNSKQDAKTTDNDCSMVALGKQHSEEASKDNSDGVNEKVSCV

Compound `CC/C(=C(/C)ON)c1cc(NC(=O)C[C@H]2CCOC2)ccc1OC[C@H]1CCCCN1` [US20240376090, Compound 202] had a Ki of 9.81 nM.

Usually Ki stands for the equilibrium dissociation constant of an inhibitor or competing ligand from its target. The low end stands for higher affinity, the high end for lower affinity.

The values are drawn from BindingDB's records for patent US20240376090 (Arena Pharmaceuticals, 2024).
